Source: patent US20250352608A1, “POLYPEPTIDES HAVING ANTI-INFLAMMATORY EFFECTS AND USES THEREOF” (OneSkin, Inc., priority 2020, published 2025)
Ends that are not written are not given here.

How the values were obtained:
[1] = test system: Primary fibroblasts from Progeria patients; test: Senescence screen (SA B-galactosidase staining) of polypeptide library; type: cell-based, human; settings: 10 μM, 48 hours
Protocol: Primary fibroblasts isolated from Progeria patients can constitute a genetic model of early aging and cellular senescence in humans. Primary fibroblasts from Progeria patients were cultured in DMEM (Dulbecco's Modified Eagle's Medium) supplemented with 10% v.v. fetal bovine serum (FBS), and 1% v.v. of penicillin/streptomycin solution (1,000 U·mL-1). Cells were kept in a 5% CO2, 37° C. and 95% humidity atmosphere. After expansion, these cells were seeded in 96-well plates (1,000 cells per well) and, 6 hours after plating, were incubated with individual polypeptides from a proprietary library at 50 μM for 48 hours. Negative control comprised untreated cells, which received vehicle only; positive control group comprised cells incubated with 10 μM ABT-263, a senolytic compound for the same period. […] Three independent experiments including three technical replicates were performed.

HGPS HDFs = test: PP2A modulators and senescence markers; type: cell-based, human; settings: 48 hs; for cellular senescence (SA-BGal+ cells): Okadaic Acid 5-7.5 nM or DT-061 7.5 μM
Protocol: Since PP2A has not been explored for cellular senescence modulation, whether the treatment of HGPS HDFs with a PP2A inhibitor (Okadaic acid—OA) and activator (DT-061) would result in the modulation of cellular senescence markers was assessed. HGPS HDFs were treated with 5-7.5 nM Okadaic Acid or 7.5 μM DT-061 for 48 hs. Some cells were treated with both 5 nM Okadaic Acid and 12.5 μM Peptide 14 for 48 hours. The senescence level was determined by SA β-galactosidase staining and normalized to total cell number.

[2] = test system: human primary fibroblasts isolated from 3 healthy donors; test: Etoposide-induced senescence; type: cell-based; settings: etoposide 20 μM
Protocol: Cellular senescence may be caused by several different stimuli. In order to assess whether Peptide 14 was effective against UVB-induced and chemically-induced senescence, human primary fibroblasts isolated from 3 healthy donors were used. These cells were cultured in DMEM (Dulbecco's Modified Eagle's Medium) supplemented with 10% v.v. fetal bovine serum (FBS), and 1% v.v. of penicillin/streptomycin solution (1,000 U mL-1). Cells were kept in a 5% CO2, 37° C. and 95% humidity atmosphere. After expansion, these cells were seeded in 96-well plates (4,000 cells per well) and, 6 hours after plating, were submitted to either etoposide (20 μM) treatment for 24 hours, or exposed twice to 0.05 J/cm^2 of UVB radiation. […] After incubation, relative cellular senescence (assessed by the activity of senescence associated β-galactosidase staining relative to untreated control) was analyzed and plotted in column graphs. ATRX foci were also assessed following ATRX immunofluorescence staining. Graphs were built using the average ATRX foci detected per nuclei. […] Data was analyzed using with either t-test or ANOVA followed by a Bonferroni post-hoc test. Statistical significance was determined as p-values equal or lower than 0.05 (FIG. 6).

[3] = test system: ex vivo skin biopsies (donors); test: Topical application to ex vivo skin biopsies; type: cell-based, human; settings: vs untreated
From the text: Senescent cell accumulation in the skin has been related to facial wrinkling and perceived age. A formulation having a concentration of Peptide 14 in the formulation was adjusted (0.01% w/v) to support the skin penetration of the Peptide 14 of up to 2% into the dermis was applied to ex vivo skin biopsies (from donors). A topical retinol application group was used as an “anti-aging” control, due to its widespread and decades-long use in the field, along with a no treatment control group.

[4] = test system: peripheral blood mononuclear cells (PBMCs); test: PBMC mRNA of IFN-γ and IL-10 (RT-qPCR); type: cell-based, human
Protocol: The effect of Peptide 14 on T cell activation was assessed by treating PBMCs stimulated with phytohaemagglutinin (PHA) with Peptide 14. PHA usually can trigger lymphocyte activation and cell division. PBMCs that were untreated with PHA or Peptide 14 served as negative control of lymphocyte activation. In the phytohaemagglutinin group, the PBMCs were activated with 5 μg/mL of PHA for 5 days. In the Peptide 14 and PHA group, the PBMCs were activated with 5 μg/mL of PHA and treated with 3.12 μM of Peptide 14 for 5 days. In the Peptide 14 group, the PBMCs were treated with 3.12 μM of Peptide 14 for 5 days. In the rapamycin group, the PBMCs were treated with 100 nM of rapamycin, a well-known immunosuppressive drug for 5 days. In the rapamycin+PHA group, the PBMCs were activated with 5 μg/mL of PHA and treated with 100 nM of rapamycin for 5 days. […] IFN-γ is typically produced in lymphocytes stimulated by PHA and may be used as marker of PBMC stimulation level. IL-10 is an anti-inflammatory cytokine. The cells from each of the experimental groups were processed for total RNA isolation, reverse transcription of the RNA and RT-qPCR. Data is represented as relative expression normalized to ubiquitous gene expression and untreated PBMC negative control.

[5] = test system: Primary fibroblasts from Progeria patients; test: Senescence in Progeria fibroblasts (LKGIL, WLKGI); type: cell-based, human; settings: 500 nM, 5 μM, 50 μM

## CC1(C)CCC(c2ccc(Cl)cc2)=C(CN2CCN(c3ccc(C(=O)NS(=O)(=O)c4ccc(N[C@H](CCN5CCOCC5)CSc5ccccc5)c(S(=O)(=O)C(F)(F)F)c4)cc3)CC2)C1 [ABT-263]
[1]
  cellular toxicity (cell number): cellular toxicity
[1]; positive control
  relative cellular senescence (SA B-galactosidase staining): significant reduction of cellular senescence

## O=S(=O)(N[C@@H]1CCC[C@H](N2c3ccccc3Oc3ccccc32)[C@H]1O)c1ccc(OC(F)(F)F)cc1 [DT-061]
HGPS HDFs
  cellular senescence (SA-BGal+ cells): SA-BGal+ cell reduction

## COc1cc([C@@H]2c3cc4c(cc3[C@@H](O[C@@H]3O[C@@H]5CO[C@@H](C)O[C@H]5[C@H](O)[C@H]3O)[C@H]3COC(=O)[C@H]23)OCO4)cc(OC)c1O [Etoposide, etoposide]
[2]; 24 hours
  ATRX foci nuclear accumulation (average ATRX foci/cell): significant increase
[2]; 24 hours (senescence inducer)
  cellular senescence level (SA β-galactosidase): significant increase

## C=C1[C@@H](O)[C@@H]2O[C@]3(CC[C@H](/C=C/[C@@H](C)[C@@H]4CC(C)=C[C@@]5(O[C@H](C[C@@](C)(O)C(=O)O)CC[C@H]5O)O4)O3)CC[C@H]2O[C@@H]1[C@@H](O)C[C@H](C)[C@H]1O[C@@]2(CCCCO2)CC[C@H]1C [OA, Okadaic acid]
HGPS HDFs
  cellular senescence (SA-BGal+ cells): significant increase
HGPS HDFs; Okadaic Acid 5-7.5 nM
  CDKN1A expression: significant increase
  CXCL1 (SASP marker) expression: significant increase
  IL6 (SASP marker) expression: significant increase

## CC1=C(/C=C/C(C)=C/C=C/C(C)=C/CO)C(C)(C)CCC1 [Retinol]
[3]
  B2M expression, dermis: significantly decreased
  HAS2 expression, dermal samples: increase
  IL8 level, epidermis: significantly increased
  Ki-67 expression, epidermis: significantly increased
  P16 mRNA expression, dermis: significant increase
  P16 mRNA expression, epidermis: significant increase
  dermal Ki67 expression: significantly induced
  dermal collagen 1 expression: significantly induced
  keratin 1 expression, epidermis: significantly reduced
  keratin 14 expression, epidermis: significantly reduced

## CO[C@H]1C[C@@H]2CC[C@@H](C)[C@@](O)(O2)C(=O)C(=O)N2CCCC[C@H]2C(=O)O[C@H]([C@H](C)C[C@@H]2CC[C@@H](O)[C@H](OC)C2)CC(=O)[C@H](C)/C=C(\C)[C@@H](O)[C@@H](OC)C(=O)[C@H](C)C[C@H](C)/C=C/C=C/C=C/1C [rapamycin]
[4]; single agent, 5 days (Peptide 14 3.12 μM; rapamycin 100 nM; PHA 5 μg/mL)
  relative expression level of IL-10 (negative control = 1): about 2.5
[4]; with 5 μg/mL PHA, 5 days (Peptide 14 3.12 μM; rapamycin 100 nM)
  relative expression level of IL-10 (negative control = 1): about 0.2

## LKGIL [LKGIL]
[5]
  cellular toxicity (relative cell number): No cellular toxicity

## WLKGI [WLKGI]
[5]
  cellular toxicity (relative cell number): No cellular toxicity
